The subject of test [1] is PYY gene. In words: Expression level of PYY gene in NCI-H716 cells (qRT-PCR). Conditions: Homo sapiens, read-out: expression level of the PYY gene relative to the blank group. The class given is cell-based. The method, then: Herein, the expression level of the gene (Gene ID: 5697) of the peptide tyrosine-tyrosine (PPY) protein in human colorectal adenocarcinoma NCI-H716 cells (purchased from the Bioresource Collection and Research Center (BCRC), number 60517; hereinafter referred to as NCI-H716 cells) treated with each of the compounds TCI-LTF-01, TCI-LTF-02, TCI-LTF-04, TCI-LTF-08, TCI-LTF-09, TCI-LTF-10, TCI-LTF-11, TCI-LTF-12, and TCI-LTF-14 that were identified in Example 7 was determined by using the RNA extraction kit, SuperScript® III Reverse Transcriptase, KAPA SYBR®FAST qPCR reagent kit, and quantitative PCR machine.
A cell culture medium used is a solution containing 20% of fetal bovine serum (FBS, purchased from Gibco, number 10438-026, US), 1% of antibiotic-antimycotic (purchased from Gibco, number 15240-062), 10 mM of HEPES buffer (purchased from Gibco, number 15630080), and 1 mM of sodium pyruvate (purchased from Gibco, number 11360070). The compounds TCI-LTF-01, TCI-LTF-02, TCI-LTF-04, TCI-LTF-08, TCI-LTF-09, TCI-LTF-10, TCI-LTF-11, TCI-LTF-12, and TCI-LTF-14 each was formulated into 100 mM of stock sample with the DMSO solvent.
First, the NCI-H716 cells were inoculated into a 6-well culture plate containing 2 mL of culture medium in a density of 1×10^5 cells per well, and cultured at 37° C. for 24 h. Next, the NCI-H716 cells were divided into a blank group and 9 experimental groups. Then, the cell culture medium in each group was replaced with 2 mL of experimental culture medium per well, and then cultured at 37° C. for 12 h. The experimental culture medium in the blank group was a cell culture medium with no treatment (that is, no additional compounds were added into the cell culture medium). The experimental culture medium in each of the 9 experimental groups was a cell culture medium containing […] of corresponding compound identified in Example 7, and the 9 compounds were: syringin (TCI-LTF-01), 1,5-di-o-caffroylquinic acid (TCI-LTF-02), luteolin (TCI-LTF-04), chlorogenic acid (TCI-LTF-08), dihydrocaffeic acid (TCI-LTF-09), caffeic acid (TCI-LTF-10), 4-hyderoxy-3-phenlylactic acid methyl ester (TCI-LTF-11), calceolarioside B (TCI-LTF-12), and 4-hydroxyphenolic acid (TCI-LTF-14). Herein, each of the 9 compounds was first formulated into 100 mM of stock sample with the DMSO solvent, and then added into the cell culture medium to give a final concentration of 100 μM in the cell culture medium. Each group was repeated for three times.
The cell membranes of the NCI-H716 cells treated in each group were broken with a cell lysis buffer to form a cell solution. Next, RNA of the 10 groups of cell solutions was extracted separately by using an RNA extraction reagent kit (purchased from Geneaid, Taiwan, Lot No. FC24015-G). Then, 1000 ng of the extracted RNA in each group was used as a template, and the extracted RNA was reverse transcribed into corresponding cDNA by the SuperScript® III reverse transcriptase (purchased from Invitrogene, USA, number 18080-051). Subsequently, the quantitative real-time reverse transcription polymerase chain reaction was carried out on the 10 groups of cDNA with the primers (SEQ ID NO: 15 to SEQ ID NO: 16) in Table 4 by using the ABI StepOnePlus™ Real-Time PCR system (Thermo Fisher Scientific, USA) and the KAPA SYBR FAST (purchased from Sigma, USA, number 38220000000) to observe the expression level of the PPY gene in the NCI-H716 cells in the 10 groups. The instrument setting conditions for the quantitative real-time reverse transcription polymerase chain reaction were 95° C. for 20 s, 95° C. for 3 s, 60° C. for 30 s, a total of 40 cycles, and gene quantification was carried out by the 2^−ΔCt method (using the m-ACTB gene as an internal reference gene). Herein, the quantitative real-time reverse transcription polymerase chain reaction with cDNA can indirectly quantify the expression level of the PYY protein encoded by the PPY gene. […]
(Quantitative PCR measures a nucleic acid by following its amplification.)

In test [2] the test system is OP9 cells differentiated into fat cells. In words: Inhibition of lipid droplet accumulation in fat cells differentiated from OP9 cells (glycerol cell-based assay), isolated compounds. Also noted: species or system mouse. The note with it: final concentration 100 μM, 7 days, blank group = 100%. The text has this:
Herein, the content of glycerol in fat cells is used as a quantitative indicator to observe whether there is lipolysis.
A cell culture medium used is the α-minimum essential medium (α-MEM, Gibco, number 12000-022) containing 20% of fetal bovine serum (FBS. Gibco, number 10438-026) and 1% of antibiotic-antimycotic (Gibco, number 15240-062).
First, 8×10^4 OP9 cells (purchased from the American Type Culture Collection, ATCC®, number ATCC CRL-2749) were inoculated into a 24-well culture plate containing 500 μL of cell culture medium per well, and cultured at 37° C. for 7 days. During the 7-day cell culture, the cell culture medium was changed every 3 days. After the 7 days of culture, the formation of lipid droplets in the OP9 cells was observed by using a microscope (ZEISS; magnification 400×) to confirm that the OP9 cells were fully differentiated into fat cells for subsequent experiments.
Then, the differentiated fat cells were divided into a blank group and 5 experimental groups. The cell culture medium in each group was replaced with 500 μL of experimental medium per well, and then cultured at 37° C. for 7 days. During the 7-day culture, the experimental medium was replaced with a fresh 500 μL one every 3 days. The experimental culture medium in the blank group was just a cell culture medium (without other compounds), while the experimental culture medium in each of the 5 experimental group was a cell culture medium containing […] of corresponding compound identified in Example 7, and the 5 compounds were: syringin (TCI-LTF-01), 1,5-di-o-caffroylquinic acid (TCI-LTF-02), quercetin-3-glucuronide (TCI-LTF-03), gallic acid (TCI-LTF-06), and chlorogenic acid (TCI-LTF-08). […]
The content of glycerol was determined by using a glycerol cell-based assay kit (purchased from Cayman, USA, product number 10011725) according to the following steps. The experimental culture medium (that is, the experimental culture medium in which fat cells had been cultured, without the fat cells) in each group was collected, 25 μL of the experimental culture medium was transferred into a new 96-well culture plate, 100 μL of reconstituted free glycerol assay reagent was added into each well to react at room temperature for 15 min, and the absorbance OD540 nm of each group was read from the 96-well culture plate by an ELISA reader, to quantify the content of glycerol released into the experimental culture medium through lipolysis, as shown in FIG. 31. […] The obtained results were analyzed by student t-test using Excel software to determine whether there is a statistically significant difference between two sample groups. […]

[3] abbreviates: NCI-H716 cells, final concentration 100 μM, 12 h, blank group = 1.0.

Read-outs that look alike come from different tables or passages of the source.

Results on ten compounds are retold here after patent publication US20220273748A1, “PLANT FERMENT AND WEIGHT LOSS METHOD FOR USING THE SAME” (TCI CO., LTD., priority 2021, published 2022).

In the case of `COC(=O)C(O)Cc1ccc(O)cc1` (stereo not shown) [TCI-LTF-11, 4-Hyderoxy-3-phenlylactic acid methyl ester], in test [1] (setting [3]), the fold induction at 100 µM is 4.5.
Regarding `O=C(/C=C/c1ccc(O)c(O)c1)OC[C@H]1O[C@@H](OCCc2ccc(O)c(O)c2)[C@H](O)[C@@H](O)[C@@H]1O` [TCI-LTF-12, Calceolarioside B], in test [1] (setting [3]), the fold induction at 100 µM is 5.6.
As to `O=c1cc(-c2ccc(O)c(O)c2)oc2cc(O)cc(O)c12` [TCI-LTF-04, Luteolin], the fold induction at 100 µM in test [1] (setting [3]) was found to be 3.6.
On the same count and under the same terms, next, `O=C(O)CCc1ccc(O)c(O)c1` [TCI-LTF-09, Dihydrocaffeic acid]: 4.9.
`O=C(/C=C/c1ccc(O)c(O)c1)O[C@@H]1C[C@](O)(C(=O)O)C[C@@H](O)[C@H]1O` [TCI-LTF-08, Chlorogenic acid] yielded a lipid droplet content in test [2] of 69.3%. The fold induction at 100 µM in test [1] (setting [3]) was 5.3.
The corresponding values for `O=C(/C=C/c1ccc(O)c(O)c1)O[C@@H]1C[C@](OC(=O)/C=C/c2ccc(O)c(O)c2)(C(=O)O)C[C@@H](O)[C@H]1O` [TCI-LTF-02, 1,5-Di-O-caffroylquinic acid] are 75.2% and 2.3.
Consider `COc1cc(/C=C/CO)cc(OC)c1O[C@@H]1O[C@H](CO)[C@@H](O)[C@H](O)[C@H]1O` [TCI-LTF-01, Syringin], for which the lipid droplet content in test [2] stood at 64.8%. Moreover, in test [1] (NCI-H716, 12 h), the fold induction at 100 µM was determined as 6.2.
As for `O=C(O)c1cc(O)c(O)c(O)c1` [TCI-LTF-06, Gallic acid], the lipid droplet content in test [2] turned out to be 72.4%.
As to `O=C(O)c1ccc(O)cc1` [TCI-LTF-14, 4-Hydroxyphenolic acid], the fold induction at 100 µM in test [1] (setting [3]) came out at 3.6.
The same measure, in the same setting: next, `O=C(O)/C=C/c1ccc(O)c(O)c1` [TCI-LTF-10, Caffeic acid]: 3.5.
